Four molecules from article PMC11356571, “The Comparative Metabolism of a Novel Hepatocellular Carcinoma Therapeutic Agent, 2,3-Diamino-N-(4-(benzo[d]thiazol-2-yl)phenyl)propanamide, in Human and Animal Hepatocytes” (Metabolites, 2024) can be followed below.

What all share (type): in vitro ADME
Data set [1] relates to human hepatocytes. Briefly: Metabolite characterization in human hepatocytes. To be noted: human hepatocyte 1 h incubates of ETN101; ND:<1.2E+05 peak area. The procedure: (§1) We mixed 60 μL aliquots of 40 μM ETN101 in incubation medium and an equal volume of human, mouse, rat, dog, or monkey hepatocyte suspension in 96-well plates and incubated for 0 or 1 h in a CO2 incubator at 37 °C. The reactions were quenched by adding 120 µL of ice-cold acetonitrile to each well, and the cell suspension was sonicated for 5 min at 4 °C. Subsequently, centrifugation was carried out at 15,000× g for 10 min at 4 °C. Next, the supernatants were evaporated to dryness using a vacuum concentrator, and residues were re-dissolved in 70 μL of 30% acetonitrile. Each sample (5 μL aliquots) was analyzed using LC–HRMS system.
(§2) For metabolite characterization, a Vanquish HPLC system (Thermo Fisher Scientific, San José, CA, USA) coupled with a Q-Exactive Orbitrap mass spectrometer (Thermo Fisher Scientific Inc., Waltham, MA, USA) was used at Core Research Support Center for Natural Products and Medical Materials at Yeungnam University. […] The eluent from the column was directly injected into the mass spectrometer using a heated electrospray ionization (HESI) source in positive ionization mode. […] The spray voltage was 3.0 kV and the capillary temperature was 320 °C. Full scan MS^1 with a data-dependent MS^2 acquisition mode was applied to obtain MS^1 scan data ranging from m/z 80 to 900, at a resolution of 70,000, whereas data-dependent MS^2 spectra were acquired for the five most abundant peaks per cycle at a resolution of 35,000. The parallel reaction monitoring (PRM) mode was used to obtain the MS^2 spectra of putative metabolites detected at low peak intensities in the data-dependent MS^2 acquisition mode. Data were collected and interpreted using Thermo Scientific Xcalibur™ Software (Thermo Fisher Scientific).

The test system of data set [2] is mouse hepatocytes. The data set is described as follows: Metabolite characterization in mouse hepatocytes. The conditions noted are these: mouse hepatocyte 1 h incubates of ETN101; ND:<1.2E+05 peak area. As for the experimental part: as §1, §2
In data set [3] the test system is rat hepatocytes. Briefly: Metabolite characterization in rat hepatocytes. The conditions noted are these: rat hepatocyte 1 h incubates of ETN101; ND:<1.2E+05 peak area. As for the experimental part: as §1, §2
In data set [4] the test system is monkey hepatocytes. Briefly: Metabolite characterization in monkey hepatocytes. To be noted: monkey hepatocyte 1 h incubates of ETN101; ND:<1.2E+05 peak area. The procedure: as §1, §2
Data set [5] has as its system dog hepatocytes. The data set is described as follows: Metabolite characterization in dog hepatocytes. The conditions noted are these: dog hepatocyte 1 h incubates of ETN101; ND:<1.2E+05 peak area. As for the experimental part: as §1, §2

Structures can show the parent of a compound that is named as a salt. Where only a bound is given, the exact number is not on record here.

For the molecule `CC(=O)Nc1ccc(-c2nc3ccccc3s2)cc1` [M2, N-Acetyl-CJM-126], the “Relative peak area (%)” value is given as 0.3% in data set [1], 0.9% in data set [2], 5.7% in data set [3] and 5.8% in data set [4].
Turning to `Nc1ccc(-c2nc3ccccc3s2)cc1O` [M5, 3′-OH-CJM-126], the “Relative peak area (%)” value in data set [1] was 0.1%; in data set [2] it was less than 0.1%; in data set [3], less than 0.1%; in data set [5] it was less than 0.1%; in data set [4], less than 0.1%.
Consider `O=C(O)[C@H]1O[C@@H](Nc2ccc(-c3nc4ccccc4s3)cc2)[C@H](O)[C@@H](O)[C@@H]1O` [M9, CJM-126 glucuronide], for which the “Relative peak area (%)” value in data set [1] is 0.1%; in data set [2] it was less than 0.1%; in data set [3], 0.1%; in data set [5], 0.5%; in data set [4], less than 0.1%.
`O=S(=O)(O)Nc1ccc(-c2nc3ccccc3s2)cc1` [M10, CJM-126 sulfate]: the “Relative peak area (%)” value in data set [3] is less than 0.1%.
